Experimental data taken from patent US9480638B2, “Cosmetic composition containing extracts of Adenophora triphylla var. japonica Hara, Angelica tenuissima and medicinal herbs” (AMOREPACIFIC CORPORATION, priority 2008, dated 2016).

Key:
PPARα = target: T1, PPARα (Mus musculus, UniProt P23204); assay: PPARα activation, PPRE promoter/luciferase reporter in transfected HaCaT cells; details: 10 uM positive control, PPARα expression plasmid + PPRE reporter, Control = 100
T1 sequence (P23204 1-468): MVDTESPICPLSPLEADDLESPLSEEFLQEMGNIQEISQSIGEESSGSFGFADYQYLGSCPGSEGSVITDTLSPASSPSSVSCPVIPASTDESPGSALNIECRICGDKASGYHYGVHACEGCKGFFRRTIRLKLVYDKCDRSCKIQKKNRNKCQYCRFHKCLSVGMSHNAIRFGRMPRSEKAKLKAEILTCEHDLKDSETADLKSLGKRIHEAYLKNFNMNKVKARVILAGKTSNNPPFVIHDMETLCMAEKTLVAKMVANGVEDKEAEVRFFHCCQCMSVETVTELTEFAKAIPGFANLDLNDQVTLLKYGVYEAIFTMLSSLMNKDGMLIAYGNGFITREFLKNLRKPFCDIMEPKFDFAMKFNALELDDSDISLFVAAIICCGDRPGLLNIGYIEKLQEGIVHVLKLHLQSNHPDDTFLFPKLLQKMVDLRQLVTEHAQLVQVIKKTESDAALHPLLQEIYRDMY
Experimental: Human keratinocyte HaCaT cells were subcultured in 10% fetal bovine serum-containing DMEM medium, which is a phenol red-free medium, in order to eliminate the effect caused by the phenol red's estrogen.
HaCaT cells were seeded into a 24-well plate at a density of 5×10^4 cells/well, cultured for 24 hours, and then transiently transfected with the plasmid genes. […] As a negative control group, a group treated with ethanol used to dissolve the samples was used. After 24 hours of culture, the cells were washed with PBS, harvested and measured for luciferase activity.

[1] = Test of antioxidant effect (DPPH test); type: biochemical; details: sample concentration at which absorbance at 540 nm is reduced by 50%; 100 μM DPPH in ethanol, 37° C., 30 minutes
Experimental: To confirm the antioxidant effect of the composition according to the present invention, the DPPH oxidation inhibitory effect of the composition was measured. As a control, the synthetic antioxidant Trolox was used. […] The reaction solution was allowed to react at 37° C. for 30 minutes, and then measured for absorbance at 540 nm. As a control sample, the widely used synthetic antioxidant Trolox was used. In Table 1, IC50 means the sample concentration at which the absorbance is reduced by 50%.

SMILES	luciferase activity (PPARα)	IC50 (DPPH analysis) [1] [ppm]
Cc1cccc(Nc2cc(Cl)nc(SCC(=O)O)n2)c1C [WY-14643, Wy-14,643]	300	
Cc1c(C)c2c(c(C)c1O)CCC(C)(C(=O)O)O2 (centres unmarked) [Trolox]		65
